The values below come from patent US9210928B2, “Plant development control composition” (Syngenta Crop Protection, LLC, priority 2008, dated 2015).

In data set [1] the test system is wild-type tomato seeds (cv. Ailsa Craig). The experiment in a line: Germination assay, wild-type tomato seed. It counts as in vivo, Solanum lycopersicum. To be noted: dose-dependent; FIG. 9. The text has this:
(§1) Seeds used were “wild-type” tomato (Solanum lycopersicum cv. Ailsa craig near-isogenic line containing the Tm2^a tobacco mosaic virus resistance gene). In addition, we used transgenic tomato seed (Solanum lycopersicum cv. Ailsa craig) transformed with a construct designed to over-express the gene LeNCED1, encoding 9-cis-epoxycarotenoid dioxygenase. These transgenic seeds are known as D9 [Thompson, A. J., et al., Ectopic expression of a tomato 9-cis-epoxycarotenoid dioxygenase gene causes over-production of abscisic acid. Plant Journal, 2000. 23(3): p. […]], but were later renamed as SP12 [Thompson, A. J., et al., Regulation and manipulation of ABA biosynthesis in roots. Plant Cell and Environment, 2007. 30: p. […] Plant Journal, 2000. 23(3): p. 363-74.5].
Each assay consisted of a 10 cm vented Petri dish containing an 8.5 cm diameter circle of Whatman Grade 1 filter paper (Whatman International Ltd, Maidstone, England) soaked in 1 ml of test solution. Seeds were surface sterilized with 30% household bleach for 30 mins, rinsed in distilled water, and then 20 seeds were placed on the filter paper in each Petri dish. The Petri dishes were incubated at high relative humidity (>95%) at 25° C. in the dark. Seed germination, defined as visible emergence of the radicle, was scored daily. Replicate plates were used for each chemical treatment. […]

Data set [2] deals with LeCCD1a (Solanum lycopersicum, UniProt Q6E4P5). Put plainly: In vitro LeCCD1a enzyme assay (recombinant cell-free extract, colourimetric, apo-8′-carotenal substrate). It is filed as biochemical, tomato (Solanum lycopersicum). To be noted: for inhibition at 100 µM: read-out: LeCCD1a (9,10/9′,10′) Inhibition @ 100 μM (%); for IC50: E. coli cell extract with recombinant CCD, read-out: LeCCD1a (9,10/9′,10′) IC50. The protocol:
In vitro LeCCD1a enzyme assay—We over-expressed LeCCD1a in E. coli, as a GST-fusion protein (supplemental methods). The in vitro assay of LeCCD1a was based on reported methods (37), and was carried out in a 200 μl total volume in a 96-well microtitre plate, with the signal detected at 485 nm. To prepare substrate solution for each assay, 5 μl of 4% (w/v in ethanol) apo-8′-carotenal (Sigma) was mixed with 25 μl of 4% (w/v in ethanol) β-octylglucoside (Sigma), the ethanol was then evaporated under nitrogen, and the residue dissolved in 150 μl PBS buffer containing 10 mM sodium ascorbate by incubation at 20° C. for 30 min. 50 μl of cell-free extract containing recombinant LeCCD1a was added, and the reactions monitored over 30 min at 20° C.
(§2) For the production of cell-free extracts of LeCCD1a and LeNCED1, cultures were grown to an OD of 0.6 at 37° C., then isopropyl β-D-1-thiogalactopyranoside (IPTG) was added to 0.2 mM and the cultures grown overnight at 20° C. The cells (200 ml cultures) were harvested by centrifugation (5000 rpm, 10 min) and the pellet re-suspended in 4 ml PBS, 0.1% Triton-X 100. Lysozyme was added to a final concentration of 25 μg ml^−1 and the solution incubated at room temperature for 15 min before sonication (3×30 s at 18Ω) on ice. The lysate was then centrifuged (13000 rpm, 15 min, 4° C.) and the supernatant used for the assay.
(§3) Specificity of inhibition in vitro for tomato genes LeNCED1 and LeCCD1a—In order to screen the inhibitors against enzymes which cleave carotenoids at the 9,10 position, we used the recombinant tomato LeCCD1a protein (44), because this type of enzyme can be studied using an in vitro colourimetric assay with β-apo-8′-carotenal as substrate (37). To establish the specificity of the inhibitors, they were also tested against the tomato LeNCED1 recombinant protein which cleaves 9-cis carotenoids at the 11,12 position (45). For this enzyme, the cleavage reaction was monitored by C18 reverse phase HPLC, using 9′-cis-neoxanthin as substrate.

For data set [3], the system named is whole Arabidopsis plants. Put plainly: Shoot branching in whole Arabidopsis plants grown in agar. It is filed as in vivo. The conditions noted are these: for unintended effects on whole Arabidopsis plants: applied to whole plants; for branching phenotype of whole plants (in words): plants grown under sterile conditions in agar. The protocol: Branching phenotypes of Arabidopsis plants grown in agar media for 45 days supplemented with inhibitor D6. Images are shown: (a) Col-0 (WT) without inhibitor; (b) max3-9 mutant without inhibitor; (c) Col-0 with 100 μM D6. The numbers (d) of rosette branches were quantified. Error bars represent standard error of the mean, n=6 to 12.
Stimulation of shoot branching in whole Arabidopsis plants—Inhibitors were also applied to Arabidopsis whole plants grown under sterile conditions in agar. […] Inhibitor treated plants were intermediate (mean of approximately 2 branches) and so partially mimicked max3-9 (FIG. 6d).

For data set [4], the system named is SP12 tomato seeds. The experiment in a line: Germination assay, SP12 tomato seed over-expressing LeNCED1. The conditions noted are these: for stimulation of germination of SP12 seeds: compounds D1 to D7 tested, 1% DMSO. It counts as in vivo, Solanum lycopersicum.
Source text: as §1
Each assay consisted of a 10 cm vented Petri dish containing an 8.5 cm diameter circle of Whatman Grade 1 filter paper (Whatman International Ltd, Maidstone, England) soaked in 1 ml of test solution. Seeds were surface sterilized with 30% household bleach for 30 mins, rinsed in distilled water, and then 20 seeds were placed on the filter paper in each Petri dish. The Petri dishes were incubated at high relative humidity (>95%) at 25° C. in the dark. Seed germination, defined as visible emergence of the radicle, was scored daily. Replicate plates were used for each chemical treatment.
Hydroxamic acids were dissolved in dimethylsulphoxide (DMSO), and aqueous test solutions were prepared such that the final concentration of DMSO was 1% v/v. Control solution consisted of 1% v/v DMSO in water. Norflurazon was prepared as a stock solution at 20 mg ml^−1 in ethanol, and then diluted with water to a final concentration of 5 mg l^−1, with ethanol present at 0.025% v/v.
Transgenic SP12 tomato seeds we created by the inventors; these seeds have high levels of ABA and increased dormancy [Thompson, A. J., et al., Ectopic expression of a tomato 9-cis-epoxycarotenoid dioxygenase gene causes over-production of abscisic acid. Plant Journal, 2000. 23(3): p. 363-74 and Thompson, A. J., et al., Regulation and manipulation of ABA biosynthesis in roots. Plant Cell and Environment, 2007. 30: p. 67-78].

Data set [5] deals with T1, LeNCED1 (Solanum lycopersicum, UniProt O24023).
T1 construct: made in house; host or cells: E. coli Rosetta (DE3); crude cell-free extract
The experiment in a line: In vitro NCED enzyme assay (recombinant LeNCED1 cell-free extract, HPLC, 9′-cis-neoxanthin substrate). It counts as biochemical, tomato. The protocol:
In vitro NCED enzyme assay—We over-expressed LeNCED1 in E. coli, as an N-terminal His6-fusion protein (supplemental methods). Cell-free extract containing recombinant LeNCED1 was prepared in 100 mM bis-tris buffer (pH 6.7). 15 μl extract was pre-activated by addition of iron(II) sulphate (20 mM, 1 μl) and ascorbic acid (20 mM, 1 μl) on ice for 2 min, prior to use. This aliquot of enzyme was then added to an assay (150 μl total volume) containing 100 mM bis-tris buffer (pH 6.7), 0.05% v/v Triton X-100, 1.0 mg/ml catalase, and 3 μg 9′-cis-neoxanthin. The 9′-cis-neoxanthin substrate was prepared as described in supplemental methods. The enzyme assay was incubated for 15 min in the dark at 20° C. Water (700 μl) was then added, and the products extracted with ethyl acetate (3×1 ml). The organic solvent was removed at reduced pressure, the residue was dissolved in methanol (200 μl), and then 100 μl was injected onto a Phenomenex C18 reverse phase HPLC column, and a gradient of 5-10% methanol in acetonitrile/0.05% triethylamine was applied at 0.5 ml/min over 20 min, detecting at 440 nm. NCED inhibition assays contained 1-100 μM inhibitor; inhibition was calculated from the product formation after 15 min, compared to a control assay with no inhibitor present.
as §2, §3

Data set [6] deals with excised Arabidopsis nodes. Put plainly: Axillary bud outgrowth assay in Arabidopsis stem sections. It counts as in vivo. To be noted: 100 μM inhibitor, 1 μM NAA; Col-0. The protocol:
Axillary bud outgrowth assay in Arabidopsis stein sections—The assays were performed essentially as described (40) with the following modifications. Small Petri dishes (50 mm diameter, 20 mm depth) were filled with 10 ml of ATS (39) supplemented with 1% agar and 1% sucrose. Inhibitors and α-naphthalene acetic acid (NAA) were added to the agar before pouring to give 100 μM and 1 μM, respectively. Thus, when the central strip was cut out of the agar, both the apical and basal media contained both NAA and inhibitor. Any nodes in which the apical end had curled out of the media or which bud length was less than 2 mm at the end of the experiment were discounted. Measurement of the shoot length was performed every 24 hours. For each assay a logistic curve was fitted using Genstat (10th edition, VSN international) with the fitcurve directive and the lag phase was calculated by extrapolating the linear part of the curve and the initial plateau (see supplementary methods). The x value of where these two lines intersected represented the lag phase.
A logistic curve, y=A+C/(1+e^−B(t−m)), was fitted to the data for each shoot using GenStat (10th edition). The lag phase was then calculated using the equation m−(2/B) which effectively gave the t value (time) of the intercept of the two extrapolated lines from the linear part of the curve and the initial plateau.
Stimulation of shoot branching in Arabidopsis stem sections by application of inhibitor—Auxin inhibits the outgrowth of axillary buds in wild-type Arabidopsis plants. In the AtCCD7 and AtCCD8 null mutants (max3 and max4, respectively) the response to auxin is reduced, presumably due to a block in formation of an apocarotenoid hormone (recently shown (17,18) to be strigolactone or a related compound) that suppresses branching (19), and axillary buds extend earlier, leading to formation of side branches. An in vitro assay was previously developed in which the growth of axillary buds from isolated sections of Arabidopsis stem was used to assess max mutants (40). […]

Data set [7] concerns the target recombinant NCED. To be noted: read-out: Ki, reversible competitive inhibitor of recombinant NCED; cited from earlier work.
The target in data set [8] is AtCCD1 (Arabidopsis thaliana, UniProt O65572). The conditions noted are these: 100 μM; cited from earlier work.
In data set [9] the target is AtNCED3 (Arabidopsis thaliana, UniProt Q9LRR7). The conditions noted are these: 100 μM; cited from earlier work.
Data set [10] concerns abscisic acid production in planta. The conditions noted are these: 50-100 μM concentration; cited from earlier work.

“Also recorded” adds a separate entry of the source.

T1 sequence (O24023 17-605): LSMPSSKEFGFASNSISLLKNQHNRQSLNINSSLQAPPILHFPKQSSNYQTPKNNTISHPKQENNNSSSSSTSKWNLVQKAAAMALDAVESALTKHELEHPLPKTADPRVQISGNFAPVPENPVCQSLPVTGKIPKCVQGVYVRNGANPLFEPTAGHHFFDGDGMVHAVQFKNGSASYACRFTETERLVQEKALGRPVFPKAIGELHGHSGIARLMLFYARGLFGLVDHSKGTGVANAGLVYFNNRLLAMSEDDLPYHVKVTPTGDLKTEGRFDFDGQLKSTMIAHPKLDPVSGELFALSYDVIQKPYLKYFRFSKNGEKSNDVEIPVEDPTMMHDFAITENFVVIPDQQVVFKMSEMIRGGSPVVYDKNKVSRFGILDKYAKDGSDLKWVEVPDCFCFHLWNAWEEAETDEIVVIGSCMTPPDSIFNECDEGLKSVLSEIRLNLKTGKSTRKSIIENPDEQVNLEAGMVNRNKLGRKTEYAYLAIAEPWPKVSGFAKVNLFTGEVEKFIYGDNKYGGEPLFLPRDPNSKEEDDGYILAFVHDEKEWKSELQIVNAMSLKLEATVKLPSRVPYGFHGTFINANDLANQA
LeCCD1a, sequence (Q6E4P5 1-545): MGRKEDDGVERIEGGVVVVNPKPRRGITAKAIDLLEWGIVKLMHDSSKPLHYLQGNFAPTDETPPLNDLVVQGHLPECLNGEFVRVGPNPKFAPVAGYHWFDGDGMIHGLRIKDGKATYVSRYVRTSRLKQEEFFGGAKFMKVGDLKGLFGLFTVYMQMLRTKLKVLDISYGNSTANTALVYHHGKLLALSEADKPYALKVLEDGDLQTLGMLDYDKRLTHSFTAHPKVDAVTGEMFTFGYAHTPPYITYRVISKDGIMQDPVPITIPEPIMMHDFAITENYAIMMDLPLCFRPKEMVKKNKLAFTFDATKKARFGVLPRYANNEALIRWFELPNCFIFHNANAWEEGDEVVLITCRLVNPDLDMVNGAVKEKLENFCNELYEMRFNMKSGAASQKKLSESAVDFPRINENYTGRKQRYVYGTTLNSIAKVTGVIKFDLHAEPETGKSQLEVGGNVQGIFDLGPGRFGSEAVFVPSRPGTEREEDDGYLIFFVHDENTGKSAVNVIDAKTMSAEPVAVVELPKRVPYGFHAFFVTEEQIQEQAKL
AtNCED3, sequence (Q9LRR7 41-599): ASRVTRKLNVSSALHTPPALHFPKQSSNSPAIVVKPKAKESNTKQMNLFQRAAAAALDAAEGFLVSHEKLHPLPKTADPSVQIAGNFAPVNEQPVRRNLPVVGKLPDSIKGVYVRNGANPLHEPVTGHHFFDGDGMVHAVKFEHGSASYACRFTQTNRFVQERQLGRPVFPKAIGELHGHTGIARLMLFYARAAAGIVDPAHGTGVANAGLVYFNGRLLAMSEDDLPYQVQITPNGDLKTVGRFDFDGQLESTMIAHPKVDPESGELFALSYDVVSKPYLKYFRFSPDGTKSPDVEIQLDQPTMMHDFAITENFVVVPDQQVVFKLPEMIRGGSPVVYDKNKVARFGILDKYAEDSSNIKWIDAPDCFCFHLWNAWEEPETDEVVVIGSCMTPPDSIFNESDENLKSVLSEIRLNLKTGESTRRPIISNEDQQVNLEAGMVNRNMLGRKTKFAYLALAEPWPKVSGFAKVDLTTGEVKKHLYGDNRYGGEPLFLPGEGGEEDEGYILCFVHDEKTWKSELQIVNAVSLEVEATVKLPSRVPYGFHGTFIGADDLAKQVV
AtCCD1, sequence (O65572 whole entry): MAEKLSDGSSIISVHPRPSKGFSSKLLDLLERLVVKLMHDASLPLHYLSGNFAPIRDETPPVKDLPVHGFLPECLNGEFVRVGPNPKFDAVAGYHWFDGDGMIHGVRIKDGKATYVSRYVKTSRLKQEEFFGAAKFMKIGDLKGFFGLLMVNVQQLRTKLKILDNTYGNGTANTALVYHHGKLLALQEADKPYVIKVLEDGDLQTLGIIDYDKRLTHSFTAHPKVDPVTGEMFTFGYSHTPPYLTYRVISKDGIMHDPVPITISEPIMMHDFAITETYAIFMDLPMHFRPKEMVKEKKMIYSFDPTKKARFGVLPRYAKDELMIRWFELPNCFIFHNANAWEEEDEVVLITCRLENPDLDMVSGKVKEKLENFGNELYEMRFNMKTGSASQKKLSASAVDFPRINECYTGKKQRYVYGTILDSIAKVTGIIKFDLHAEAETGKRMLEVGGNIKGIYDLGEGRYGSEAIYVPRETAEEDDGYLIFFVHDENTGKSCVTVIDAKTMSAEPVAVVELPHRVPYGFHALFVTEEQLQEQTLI

As for `COc1ccc(CC(=O)N(O)Cc2ccc(F)cc2)cc1` [Compound D4, N-(4-fluorobenzyl)-4-methoxyphenylacetyl hydroxamic acid], in data set [1], the “germination of wild-type tomato seeds” value was “germination of these seeds was also promoted”. For the same compound, the inhibition at 100 µM in data set [2] is > 95%. Also, in data set [3], the “unintended effects on whole Arabidopsis plants” value is listed as “without negative unintended effects on whole plants” and the “branching phenotype of whole plants (in words)” value is on record as “bushy appearance”. Besides, the “plant development following application to seeds” value in data set [4] (2 mM) is given as “Some delay in development”. Moreover, the “stimulation of germination of SP12 seeds” value in data set [4] is recorded as “most active compounds in stimulating germination; also recorded: promoted germination of SP12 seeds”. In [4] (concentrations <1 mM), the “plant development following application to wild-type or SP12 seeds” value was “Normal plant development”. Also, the “inhibition of LeNCED1 in vitro (in words)” value in data set [5] is recorded as “greatest inhibition of NCED in vitro”.

For `O=C(Cc1ccc(O)cc1)N(O)Cc1ccccc1` [Compound D1, N-benzyl-4-hydroxyphenylacetyl hydroxamic acid], in [2], the “inhibition of LeCCD1 in vitro (in words)” value is “good inhibitors of the 9,10 enzymes in vitro”, the IC50 lay in the range of 0.8 to 0.9 µM and the inhibition at 100 µM was > 95%. Besides, in data set [6], the “advancement of the timing of bud outgrowth in wild-type” value is “one”. For the same compound, in data set [3], the “unintended effects on whole Arabidopsis plants” value is “grew normally” and the “branching phenotype of whole plants (in words)” value was “without an increase in branching”.

What is called Ki is the dissociation constant of the complex between target and ligand, obtained from inhibition or displacement. Turning to abamineSG, the Ki in data set [7] is 18.5 µM. The “inhibition of AtCCD1” value in data set [8] is recorded as ≤ 20%. In addition, in [9], the “inhibition of AtNCED3” value is recorded as 78%.

For `O=C(Cc1ccc2c(c1)OCO2)N(O)Cc1ccc(F)cc1` [Compound D7, N-(4-fluorobenzyl)-3,4-methylenoxyphenylacetyl hydroxamic acid], the inhibition at 100 µM in data set [2] was > 95%. Further, the “stimulation of germination of SP12 seeds” value in data set [4] is reported as “most active compounds in stimulating germination”. Also, in data set [5], the “inhibition of LeNCED1 in vitro (in words)” value was “greatest inhibition of NCED in vitro”.

Consider `COC(=O)CN(C/C=C/c1ccc(OC)c(OC)c1)Cc1ccc(F)cc1` [Abamine, reference compound], for which the Ki in data set [7] is 39 µM. Further, the IC50 in data set [2] was 210 µM. In [10], the “abscisic acid production in planta” value was “inhibited abscisic acid production in planta”. In addition, the “LeNCED1 (11,12) Inhibition @ 100 μM (%)” value in data set [5] (100 μM inhibitor, E. coli cell extract with recombinant CCD) is recorded as 20%.
